Experimental data reported in ChEMBL document CHEMBL4184289, “Design, synthesis and anticancer activities evaluation of novel 5H-dibenzo[b,e]azepine-6,11-dione derivatives containing 1,3,4-oxadiazole units” (Bioorg Med Chem Lett, 2018).
Active and inactive are the calls of the source. The rule behind the calls is not given here.

What was measured:
OVCAR-3 [1] = assay: Antiproliferative activity against human OVCAR3 cells after 24 hrs by MTT assay; assay type: functional, cell-based
[2] = molecular target: Poly [ADP-ribose] polymerase 1 (Homo sapiens, UniProt P09874); assay: Inhibition of recombinant human GST-tagged PARP1 expressed in Escherichia coli using damaged DNA as substrate after 30 mins in presence of NAD+ by resazurin dye based fluorescence assay
OVCAR-3 [3] = assay: Induction of apoptosis in human OVCAR3 cells assessed as downregulation of Bcl2 protein expression at 0.625 to 10 uM after 24 hrs by Western blot method; assay type: functional, cell-based
[4] = Homo sapiens, OVCAR-3, 24 h, read-out: IC50

Chain of Poly [ADP-ribose] polymerase 1 (P09874 whole entry): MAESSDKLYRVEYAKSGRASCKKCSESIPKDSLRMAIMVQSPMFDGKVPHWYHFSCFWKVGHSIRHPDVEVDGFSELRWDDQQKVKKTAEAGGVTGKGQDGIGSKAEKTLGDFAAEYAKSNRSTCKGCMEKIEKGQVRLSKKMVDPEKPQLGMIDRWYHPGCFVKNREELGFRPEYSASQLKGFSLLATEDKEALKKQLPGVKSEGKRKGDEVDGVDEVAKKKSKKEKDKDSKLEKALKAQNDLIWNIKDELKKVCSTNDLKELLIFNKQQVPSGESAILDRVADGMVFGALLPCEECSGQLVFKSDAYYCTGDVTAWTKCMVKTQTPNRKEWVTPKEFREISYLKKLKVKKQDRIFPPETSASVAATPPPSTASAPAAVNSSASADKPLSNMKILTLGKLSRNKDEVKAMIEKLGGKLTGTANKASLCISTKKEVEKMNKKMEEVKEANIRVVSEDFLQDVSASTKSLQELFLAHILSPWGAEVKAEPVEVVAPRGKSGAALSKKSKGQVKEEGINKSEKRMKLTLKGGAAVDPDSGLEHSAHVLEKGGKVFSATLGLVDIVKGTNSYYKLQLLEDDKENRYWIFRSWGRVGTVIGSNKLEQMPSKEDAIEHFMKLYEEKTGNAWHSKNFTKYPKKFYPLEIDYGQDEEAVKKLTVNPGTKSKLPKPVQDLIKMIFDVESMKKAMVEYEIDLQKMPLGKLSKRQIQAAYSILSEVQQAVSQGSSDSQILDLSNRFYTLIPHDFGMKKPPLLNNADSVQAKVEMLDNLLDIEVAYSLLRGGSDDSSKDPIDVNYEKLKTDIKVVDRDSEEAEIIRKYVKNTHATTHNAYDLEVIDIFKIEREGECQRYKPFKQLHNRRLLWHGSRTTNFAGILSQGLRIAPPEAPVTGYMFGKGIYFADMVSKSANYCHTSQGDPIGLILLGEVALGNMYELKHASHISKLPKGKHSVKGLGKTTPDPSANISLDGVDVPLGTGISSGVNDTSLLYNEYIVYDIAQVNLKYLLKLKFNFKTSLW

**Q.** How did the IC50 (OVCAR-3 [1]; [4]) turn out when `COc1ccc(Cl)cc1/C=C/c1nnc(-c2cccc3c(=O)c4ccccc4c(=O)[nH]c23)o1` was run?
**A.** > 100000 nM

**Q.** And the IC50 ([2]; read-out: IC50)?
**A.** 1260 nM

**Q.** Which results are given for `O=C(NCc1nnc(-c2cccc3c(=O)c4ccccc4c(=O)[nH]c23)o1)c1ccccc1Cl`?
**A.** IC50 (OVCAR-3 [1]; [4]): > 100000 nM; IC50 ([2]; read-out: IC50): 745 nM

**Q.** `Cc1cc(-c2nnc(/C=C/c3ccccc3)o2)c2[nH]c(=O)c3ccccc3c(=O)c2c1` was tested. Which IC50 (OVCAR-3 [1]; [4]) did it give?
**A.** 17700 nM

**Q.** And the IC50 ([2]; read-out: IC50)?
**A.** 446 nM

**Q.** `O=C(NCc1nnc(-c2cccc3c(=O)c4ccccc4c(=O)[nH]c23)o1)c1ccccc1` was tested. Which IC50 (OVCAR-3 [1]; [4]) did it give?
**A.** > 100000 nM

**Q.** And the IC50 ([2]; read-out: IC50)?
**A.** 1260 nM

**Q.** How did the IC50 (OVCAR-3 [1]; ovcar-3) turn out when `COc1ccc(Br)cc1/C=C/c1nnc(-c2cc(C)cc3c(=O)c4ccccc4c(=O)[nH]c23)o1` was run?
**A.** Not Active

**Q.** And the IC50 [2]?
**A.** Not Active

**Q.** Which results are given for `O=c1[nH]c2c(-c3nnc(/C=C/c4ccccc4)o3)cccc2c(=O)c2ccccc12`?
**A.** IC50 (OVCAR-3 [1]; [4]): 12100 nM; IC50 ([2]; read-out: IC50): 400 nM

**Q.** With `Cc1cc(-c2nnc(CNC(=O)c3ccccc3Cl)o2)c2[nH]c(=O)c3ccccc3c(=O)c2c1` as the compound, how does the IC50 (OVCAR-3 [1]; ovcar-3) read?
**A.** Not Active

**Q.** What about the IC50 [2] of the same compound?
**A.** Not Active

**Q.** How did the IC50 (OVCAR-3 [1]; ovcar-3) turn out when `Cc1cc(-c2nnc(COc3ccccc3)o2)c2[nH]c(=O)c3ccccc3c(=O)c2c1` was run?
**A.** Not Active

**Q.** And the IC50 [2]?
**A.** Not Active

**Q.** Which IC50 (OVCAR-3 [1]; [4]) does the source give for `COc1c(Br)cc(Br)cc1/C=C/c1nnc(-c2cccc3c(=O)c4ccccc4c(=O)[nH]c23)o1` here?
**A.** 1400 nM

**Q.** What about the IC50 ([2]; read-out: IC50) of the same compound?
**A.** 25 nM

**Q.** What about the Activity (OVCAR-3 [3]) of the same compound?
**A.** Active

**Q.** Which IC50 (OVCAR-3 [1]; [4]) does the source give for `CNCc1ccc(-c2[nH]c3cc(F)cc4c3c2CCNC4=O)cc1` [RUCAPARIB] here?
**A.** 3310 nM

**Q.** Which IC50 (OVCAR-3 [1]; [4]) does the source give for `COc1ccc(F)cc1/C=C/c1nnc(-c2cccc3c(=O)c4ccccc4c(=O)[nH]c23)o1` here?
**A.** > 100000 nM

**Q.** And the IC50 ([2]; read-out: IC50)?
**A.** 951 nM

**Q.** Which IC50 (OVCAR-3 [1]; [4]) does the source give for `O=c1[nH]c2c(-c3nnc(-c4ccccc4Cl)o3)cccc2c(=O)c2ccccc12` here?
**A.** > 100000 nM

**Q.** What about the IC50 ([2]; read-out: IC50) of the same compound?
**A.** 1100 nM

**Q.** What does the source list for `Cc1cc(-c2nnc(-c3ccccc3)o2)c2[nH]c(=O)c3ccccc3c(=O)c2c1`?
**A.** IC50 (OVCAR-3 [1]; [4]): 10100 nM; IC50 ([2]; read-out: IC50): 277 nM

**Q.** How did the IC50 (OVCAR-3 [1]; [4]) turn out when `O=c1[nH]c2c(-c3nnc(COc4ccccc4)o3)cccc2c(=O)c2ccccc12` was run?
**A.** 6280 nM

**Q.** What about the IC50 ([2]; read-out: IC50) of the same compound?
**A.** 99 nM

**Q.** Which results are given for `Cc1cc(-c2nnc(CNC(=O)c3ccccc3)o2)c2[nH]c(=O)c3ccccc3c(=O)c2c1`?
**A.** IC50 (OVCAR-3 [1]; [4]): 11400 nM; IC50 ([2]; read-out: IC50): 304 nM

**Q.** How did the IC50 (OVCAR-3 [1]; [4]) turn out when `COc1ccccc1/C=C/c1nnc(-c2cc(C)cc3c(=O)c4ccccc4c(=O)[nH]c23)o1` was run?
**A.** 10700 nM

**Q.** And the IC50 ([2]; read-out: IC50)?
**A.** 147 nM

**Q.** `Cc1cc(-c2nnc(-c3ccccc3Cl)o2)c2[nH]c(=O)c3ccccc3c(=O)c2c1` was tested. Which IC50 (OVCAR-3 [1]; [4]) did it give?
**A.** 4190 nM

**Q.** And the IC50 ([2]; read-out: IC50)?
**A.** 51 nM

**Q.** With `COc1ccccc1/C=C/c1nnc(-c2cccc3c(=O)c4ccccc4c(=O)[nH]c23)o1` as the compound, how does the IC50 (OVCAR-3 [1]; [4]) read?
**A.** 8990 nM

**Q.** What about the IC50 ([2]; read-out: IC50) of the same compound?
**A.** 136 nM

**Q.** Which results are given for `O=c1[nH]c2c(-c3nnc(-c4ccccc4)o3)cccc2c(=O)c2ccccc12`?
**A.** IC50 (OVCAR-3 [1]; [4]): > 100000 nM; IC50 [2]: Not Active

**Q.** How did the IC50 (OVCAR-3 [1]; [4]) turn out when `COc1ccc(F)cc1/C=C/c1nnc(-c2cc(C)cc3c(=O)c4ccccc4c(=O)[nH]c23)o1` was run?
**A.** > 100000 nM

**Q.** What about the IC50 ([2]; read-out: IC50) of the same compound?
**A.** 1050 nM

**Q.** Which results are given for `COc1ccc(Cl)cc1/C=C/c1nnc(-c2cc(C)cc3c(=O)c4ccccc4c(=O)[nH]c23)o1`?
**A.** IC50 (OVCAR-3 [1]; [4]): > 100000 nM; IC50 ([2]; read-out: IC50): 1190 nM

**Q.** Which IC50 (OVCAR-3 [1]; ovcar-3) does the source give for `COc1c(Br)cc(Br)cc1/C=C/c1nnc(-c2cc(C)cc3c(=O)c4ccccc4c(=O)[nH]c23)o1` here?
**A.** Not Active

**Q.** What about the IC50 ([2]; read-out: IC50) of the same compound?
**A.** 939 nM

**Q.** What does the source list for `COc1ccc(Br)cc1/C=C/c1nnc(-c2cccc3c(=O)c4ccccc4c(=O)[nH]c23)o1`?
**A.** IC50 (OVCAR-3 [1]; [4]): 1660 nM; IC50 ([2]; read-out: IC50): 47 nM; Activity (OVCAR-3 [3]): Active
